Experimental data as given in ChEMBL document CHEMBL4613239, “α-Glucosidase and Protein Tyrosine Phosphatase 1B Inhibitors from Malbranchea circinata” (J Nat Prod, 2020).
Active and inactive are the calls of the source. The calls are words filed in the database; no cut-off is given here.

Columns and labels:
[1] = biological target: T1, Tyrosine-protein phosphatase non-receptor type 1 (Homo sapiens, UniProt P18031); assay: (§1) Inhibition of human PTP1B expressed in Escherichia coli BL21 (DE3) cells using PNPP as substate preincubated for 5 mins followed by substrate additon and measured after 15 mins
T1 sequence (P18031 whole entry): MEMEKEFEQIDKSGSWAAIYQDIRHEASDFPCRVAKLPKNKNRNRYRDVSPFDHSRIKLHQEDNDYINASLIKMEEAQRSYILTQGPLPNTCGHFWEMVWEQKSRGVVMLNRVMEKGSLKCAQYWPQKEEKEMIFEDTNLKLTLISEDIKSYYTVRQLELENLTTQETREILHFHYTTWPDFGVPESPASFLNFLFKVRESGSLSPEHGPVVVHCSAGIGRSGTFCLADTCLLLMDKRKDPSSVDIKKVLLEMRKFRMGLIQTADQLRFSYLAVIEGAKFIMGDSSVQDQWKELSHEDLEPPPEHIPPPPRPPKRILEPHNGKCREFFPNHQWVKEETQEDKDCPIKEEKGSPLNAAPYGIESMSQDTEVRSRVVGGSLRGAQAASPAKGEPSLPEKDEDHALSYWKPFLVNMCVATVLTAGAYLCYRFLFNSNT

[2] = tested on: Mus musculus; assay: Induction of hypo glycemic activity in ICR mouse assessed as reduction in postprandial glucose level at 10 mg/kg, po pretreated for 30 mins followed by sucrose treatment and measured after 30 to 120 mins; type: functional, organism-based
[3] = Inhibition of rat intestinal rat alpha-glucosidase
[4] = Inhibition of Saccharomyces cerevisiae alpha-glucosidase using pNPG as substrate preincubated for 10 mins followed by substrate addition after 20 mins
[5] = biological target: T2, Tyrosine-protein phosphatase non-receptor type 1 (Homo sapiens) (UniProt P18031); assay: as §1
T2 sequence (whole entry): T1 sequence (P18031 whole entry)

Compound	IC50 [1] [µM]	Activity [2]	IC50 [3] [µM]	IC50 [4] [µM]	inhibition [5]
CC(C)=CCc1ccc(O)c2c(=O)c3c(O)cc(C)c(O)c3oc12	13.9				
C[C@H]1O[C@H](O[C@H]2[C@H](O)[C@@H](O)[C@@H](O[C@H]3[C@H](O)[C@@H](O)C(O)O[C@@H]3CO)O[C@@H]2CO)[C@H](O)[C@@H](O)[C@@H]1N[C@H]1C=C(CO)[C@@H](O)[C@H](O)[C@H]1O (stereo partly specified) [ACARBOSE]		Active	151	586	
COC1CCC(=O)c2c(O)c(-c3cc(O)c4c(c3O)C(=O)CCC4OC)cc(O)c21 (stereo unspecified)	10.9				
CC(=O)O[C@H]1[C@@H](Oc2cc(O)c3c(c2)C(=O)c2cc(C)cc(O)c2C3=O)O[C@H](CO)[C@H]1OC(C)=O					Active
O=C1Nc2ccccc2-c2nc3ccccc3c(=O)n2-c2c(O)cccc21				117	Active
CC1(C)c2[nH]c3cc(Cl)c(Cl)cc3c2C[C@@]23CN4CCC[C@]4(C[C@@H]12)C(=O)N3	14.5	Active	459	71.3	
O=C1Nc2ccccc2-c2nc3ccccc3c(=O)n2-c2ccccc21				144	Active
Cc1cc(O)c2c(c1)C(=O)c1cc(O[C@H]3O[C@H](CO)[C@@H](O)[C@H]3O)cc(O)c1C2=O				261	Active
CC(=O)OC[C@H]1O[C@H](Oc2cc(O)c3c(c2)C(=O)c2cc(C)cc(O)c2C3=O)[C@H](OC(C)=O)[C@@H]1OC(C)=O					Active
CC(=O)O[C@H]1[C@@H](O)[C@@H](Oc2cccc3c2C(=O)c2c(O)cc(C)cc2C3=O)O[C@@H]1CO					Active
C=CC(C)(C)[C@@]12C[C@@H]3C(=O)N4[C@H](C[C@@]5(C(C)(C)C=C)c6ccccc6N[C@@H]45)C(=O)N3[C@@H]1Nc1ccccc12	15.3		743	57.4	
